# Source: ChEMBL document CHEMBL1156447, “Cyanidin-3-rutinoside, a natural polyphenol antioxidant, selectively kills leukemic cells by induction of oxidative stress” (J Biol Chem, 2007)
# Active and inactive are the calls of the source. The rule behind the calls is not given here.
# How the values were obtained:
# [1] = system: HL-60; experiment: Induction of apoptosis in human HL60 cells after 18 hrs by Hoechst 33258 staining; assay type: functional, cell-based
# [2] = system: HL-60; experiment: Induction of apoptosis in human HL60 cells at 60 uM by Hoechst 33258 staining; assay type: functional, cell-based; settings: TDE = time-dependent effect
# [3] = system: HL-60; experiment: Induction of apoptosis in human HL60 cells assessed as caspase 3 activation; assay type: functional, cell-based
# [4] = system: HL-60; experiment: Induction of apoptosis in human HL60 cells assessed as caspase 9 activation; assay type: functional, cell-based
# [5] = system: HL-60; experiment: Suppression of induction of apoptosis in human HL60 cells at 60 uM after 18 hrs in presence of Z-VAD; assay type: functional, cell-based
# [6] = system: HL-60; experiment: Suppression of induction of apoptosis in human HL60 cells at 60 uM after 18 hrs in presence of DEVD-CHO; assay type: functional, cell-based
# [7] = system: HL-60; experiment: Induction of apoptosis in human HL60 cells assessed as cytochrome c release at 80 uM by immunoblot analysis; assay type: functional, cell-based
# [8] = system: HL-60; experiment: Induction of apoptosis in human HL60 cells assessed as Smac release at 80 uM by immunoblot analysis; assay type: functional, cell-based
# [9] = system: MOLT-4; experiment: Induction of apoptosis in human MOLT4 cells after 18 hrs by Hoechst staining; assay type: functional, cell-based
# [10] = system: Daudi; experiment: Induction of apoptosis in human Daudi cells after 18 hrs by Hoechst staining; assay type: functional, cell-based
# [11] = system: CCRF-CEM; experiment: Induction of apoptosis in human CCRF-CEM cells after 18 hrs by Hoechst staining; assay type: functional, cell-based
# [12] = Antioxidant activity in Ti(IV)-hydrogen peroxide complex system assessed as inhibition of hydrogen peroxide production; assay type: functional
# [13] = Antioxidant activity assessed as inhibition of superoxide production; assay type: functional
# [14] = Antioxidant activity assessed as inhibition of peroxyl radical production; assay type: functional
# [15] = system: PBMC; experiment: Antioxidant activity in human PBMC assessed as reduction in intracellular peroxide levels by flow cytometry; assay type: functional, cell-based
# [16] = system: HL-60; experiment: Increase in hydrogen peroxide accumulation in human HL60 cells at 80 uM by flow cytometry; assay type: functional, cell-based
# [17] = system: HL-60; experiment: Increase in intracellular hydrogen peroxide level in human HL60 cells after 1 hr by phenol red method; assay type: functional, cell-based
# [18] = system: HL-60; experiment: Suppression of induction of apoptosis in human HL60 cells at 80 uM after 18 hrs by Hoechst staining in presence of hydrogen peroxide; assay type: functional, cell-based
# [19] = system: HL-60; experiment: Suppression of induction of apoptosis in human HL60 cells at 80 uM after 18 hrs by Hoechst staining in presence of N-acetyl-cysteine; assay type: functional, cell-based
# [20] = system: HL-60; experiment: Suppression of induction of apoptosis in human HL60 cells at 80 uM after 18 hrs by Hoechst staining in presence of catalase; assay type: functional, cell-based
# [21] = target: T1, MAP kinase p38 (Homo sapiens) (UniProt O15264+Q15759+Q16539+P53778); experiment: Increase in p38 MAPK phosphorylation in human HL60 cells at 80 uM after 8 hrs by immunoblot analysis; assay type: cell-based; settings: HL-60
# [22] = target: T2, c-Jun N-terminal kinase, JNK (Homo sapiens) (UniProt P45983+P53779+P45984); experiment: Increase in JNK phosphorylation in human HL60 cells at 80 uM after 8 hrs by immunoblot analysis; assay type: cell-based; settings: HL-60
# [23] = system: HL-60; experiment: Suppression of induction of apoptosis in human HL60 cells assessed as inhibition of mitochondrial release of cytochrome c at 80 uM after 18 hrs […] in presence of SB-203580; assay type: functional, cell-based
# [24] = system: HL-60; experiment: Suppression of induction of apoptosis in human HL60 cells assessed as inhibition of mitochondrial release of cytochrome c at 80 uM after 18 hrs […] in presence of SP600125; assay type: functional, cell-based
# [25] = system: HL-60; experiment: Suppression of induction of apoptosis in human HL60 cells assessed as inhibition of mitochondrial release of Smac at 80 uM after 18 hrs […] in presence of SB-203580; assay type: functional, cell-based
# [26] = system: HL-60; experiment: Suppression of induction of apoptosis in human HL60 cells assessed as inhibition of mitochondrial release of Smac at 80 uM after 18 hrs […] in presence of SP600125; assay type: functional, cell-based
# [27] = system: HL-60; experiment: Suppression of induction of apoptosis in human HL60 cells at 80 uM after 18 hrs by Hoechst staining in presence of SB-203580; assay type: functional, cell-based
# [28] = system: HL-60; experiment: Suppression of induction of apoptosis in human HL60 cells at 80 uM after 18 hrs by Hoechst staining in presence of SP600125; assay type: functional, cell-based
# [29] = target: T3, Bcl-2 homologous antagonist/killer (Homo sapiens) (UniProt Q16611); experiment: Activation of Bak in human HL60 cells assessed as oligomerization and conformational change at 80 uM after 8 hrs by immunostaining; assay type: functional, cell-based; settings: HL-60
# T3 sequence (whole entry): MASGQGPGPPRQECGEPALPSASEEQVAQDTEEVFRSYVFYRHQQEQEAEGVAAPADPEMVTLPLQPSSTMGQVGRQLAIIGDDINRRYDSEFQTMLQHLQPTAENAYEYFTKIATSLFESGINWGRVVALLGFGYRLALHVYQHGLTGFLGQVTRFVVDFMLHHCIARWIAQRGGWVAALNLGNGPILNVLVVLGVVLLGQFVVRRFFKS
# [30] = target: Bcl-2-like protein 11 (Homo sapiens) (UniProt O43521); experiment: Increase in Bim EL phosphorylation in human HL60 cells at 80 uM after 8 hrs by immunoblot analysis; assay type: cell-based; settings: HL-60
# Sequence of Bcl-2-like protein 11 (Homo sapiens) (O43521 whole entry, looked up): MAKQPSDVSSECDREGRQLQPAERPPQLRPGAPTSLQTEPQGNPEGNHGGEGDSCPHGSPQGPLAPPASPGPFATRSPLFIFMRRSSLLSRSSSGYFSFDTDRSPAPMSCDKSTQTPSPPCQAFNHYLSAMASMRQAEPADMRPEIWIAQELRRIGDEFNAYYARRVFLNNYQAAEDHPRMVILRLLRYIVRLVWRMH
# [31] = system: CCRF-CEM; experiment: Suppression of induction of apoptosis in human CCRF-CEM cells at 80 uM after 24 hrs by Hoechst staining in presence of SB-203580; assay type: functional, cell-based
# [32] = system: CCRF-CEM; experiment: Suppression of induction of apoptosis in human CCRF-CEM cells at 80 uM after 24 hrs by Hoechst staining in presence of N-acetyl-cysteine; assay type: functional, cell-based
# [33] = system: CCRF-CEM; experiment: Suppression of induction of apoptosis in human CCRF-CEM cells at 80 uM after 24 hrs by Hoechst staining in presence of catalase; assay type: functional, cell-based
# [34] = system: HL-60; experiment: Induction of apoptosis in human HL60 cells overexpressing human Bcl XL after 18 hrs by Hoechst staining; assay type: functional, cell-based
# [35] = system: HL-60; experiment: Induction of apoptosis in human HL60 cells overexpressing human Bcl2 after 18 hrs by Hoechst staining; assay type: functional, cell-based
# [36] = target: T1, MAP kinase p38 (Homo sapiens); experiment: Increase in p38 MAPK phosphorylation in catalase pretreated human HL60 cells at 80 uM after 8 hrs by immunoblot analysis; assay type: cell-based; settings: HL-60
# [37] = target: T2, c-Jun N-terminal kinase, JNK (Homo sapiens); experiment: Increase in JNK phosphorylation in N-acetyl-cysteine pretreated human HL60 cells at 80 uM after 8 hrs by immunoblot analysis; assay type: cell-based; settings: HL-60
# [38] = target: T2, c-Jun N-terminal kinase, JNK (Homo sapiens); experiment: Increase in JNK catalase pretreated human HL60 cells at 80 uM after 8 hrs by immunoblot analysis; assay type: cell-based; settings: HL-60
# [39] = system: CCRF-CEM; experiment: Induction of apoptosis in human CCRF-CEM cells expressing shRNA against Bim at 80 uM after 24 hrs by Hoechst staining; assay type: functional, cell-based
# [40] = target: Apoptosis regulator BAX (Homo sapiens) (UniProt Q07812); experiment: Activation of Bax in human HL60 cells assessed as mitochondrial translocation at 80 uM after 8 hrs by immunostaining; settings: HL-60
# Sequence of Apoptosis regulator BAX (Homo sapiens) (Q07812 whole entry): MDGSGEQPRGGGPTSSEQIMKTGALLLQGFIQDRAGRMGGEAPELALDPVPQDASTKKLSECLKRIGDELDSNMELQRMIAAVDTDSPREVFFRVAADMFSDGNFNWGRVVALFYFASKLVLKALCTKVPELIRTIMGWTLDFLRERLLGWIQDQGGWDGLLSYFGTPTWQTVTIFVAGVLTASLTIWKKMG
# [41] = target: T1, MAP kinase p38 (Homo sapiens); experiment: Increase in p38 MAPK phosphorylation in N-acetyl-cysteine pretreated human HL60 cells at 80 uM after 2 hrs by immunoblot analysis; settings: HL-60
compound,measurement,setting,value
C[C@@H]1O[C@@H](OC[C@H]2O[C@@H](Oc3cc4c(O)cc(O)cc4[o+]c3-c3ccc(O)c(O)c3)[C@H](O)[C@@H](O)[C@@H]2O)[C@H](O)[C@H](O)[C@H]1O,Activity,[1],Dose-dependent effect
same,Activity,[2],tde
same,Activity,[3],Dose-dependent effect
same,Activity,[4],Dose-dependent effect
same,Activity,[5],Active
same,Activity,[6],Active
same,Activity,[7],Active
same,Activity,[8],Active
same,Activity,[9],Active
same,Activity,[10],Active
same,Activity,[11],Active
same,Activity,[12],Dose-dependent effect
same,Activity,[13],Active
same,Activity,[14],Active
same,Activity,[15],Active
same,Activity,[16],Active
same,Activity,[17],Active
same,Activity,[18],Active
same,Activity,[19],Active
same,Activity,[20],Active
same,Activity,[21],Active
same,Activity,[22],Active
same,Activity,[23],Active
same,Activity,[24],Active
same,Activity,[25],Active
same,Activity,[26],Active
same,Activity,[27],Active
same,Activity,[28],Active
same,Activity,[29],Active
same,Activity,[30],Active
same,Activity,[31],Active
same,Activity,[32],Active
same,Activity,[33],Active
same,Activity,[34],inactive
same,Activity,[35],inactive
same,Activity,[36],inactive
same,Activity,[37],inactive
same,Activity,[38],inactive
same,Activity,[39],inactive
same,Activity,[40],Active
same,Activity,[41],inactive
